Common to all, as to type: cell-based, human
In one experiment the test system is A549 cells. Nature of the experiment: MTT cytotoxicity, lung cancer cells A549. In short, it runs like this:
(§1)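 5000 cells/well; compounds 0.1–10 μM (0.1, 1, 5, 10 μM), 48 and/or 72 h. MTT 5 mg/ml, 4 h; formazan in DMSO; OD 570/630 nm. % viability vs matched-DMSO control; IC50 from dose-response curves; cell-free MTT+compound blanks.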

The test system of the next experiment is HCT-116 cells. Nature of the experiment: MTT cytotoxicity, colon cancer cells HCT-116. Summed up: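 Cells were seeded at 5000 per well and treated next day with compound at 0.1, 1, 5 and 10 μM (final) for 48 and/or 72 h, with matched DMSO controls. MTT was added for 4 h and formazan was dissolved in DMSO and read at 570/630 nm. % viability against control gave IC50 from dose-response curves.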

A further experiment deals with A498 cells. Nature of the experiment: MTT cytotoxicity, kidney cancer cells A498. The note with it: for selectivity index: MCF-10F/Beas2b vs A498. In short, it runs like this: as §1
The subject of a further experiment is MCF-10F/Beas2b cells. Nature of the experiment: MTT cytotoxicity, healthy cells MCF-10F/Beas2b. The following applies: cancer line not given; for Selectivite Index, MCF-10F/Beas2b (Table 2): MCF-10F/Beas2b vs colon or pancreas cancer cells; for Selectivite Index (SI), MCF-10F/Beas2b (Table 1): MCF-10F/Beas2b vs breast or kidney cancer cells. In short, it runs like this:
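Following seeding and next-day dosing at 0.1, 1, 5 and 10 μM, plates incubate 48 and/or 72 h. MTT is then applied for 4 h and dissolved crystals measured at 570 nm (630 nm reference); cell-free compound+MTT wells control for interference, and IC50 is calculated per compound.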

For a further experiment, the system named is MCF-7 cells. Nature of the experiment: MTT cytotoxicity, breast cancer cells MCF-7. The note with it: MTT. In short, it runs like this:
as §1

In experiment [1] the test system is pancreas and kidney cancer cells. Description: Apoptosis detection, Annexin V/PI flow cytometry, pancreas and kidney cancer cells. Here is the method: After incubation with 2-indolinone compounds (IC50 μM concentration; 48 and/or 72 hours), cells are washed twice with PBS and the cell pellet is suspended in Annexin V binding buffer. After this incubation, cells are incubated with FITC-conjugated Annexin V and propidium iodine staining solution for 15 minutes in the dark and at room temperature. Then, cells are analyzed by flow cytometry (Beckman coulter, Navios) (Wlodkowic, D., Skommer, J, Darzynkiewicz, Z. 2009. Flow cytometry-based apoptosis detection, Methods Mol Biol., 559, 1-14).
Whether the 2-indolinone derivatives (5) with the highest selectivity index and general TKI activity stimulated apoptosis and necrosis is determined by Annexin V and propidium iodine staining in pancreas and kidney cancer cells. Annexin V/PI flow cytometry apoptosis values of the tested compounds Y1, Y2, Y3, Y4, Y8 and Y14 are found to be 40% and above in correlation with MTT results. The apoptosis rates of the control groups and the substances are analyzed by t test in GraphPad version 9.0.

Where [2] appears, read: no * mark (incubation time not specified).
Setting [3] is: MTT, no * mark (incubation time not specified).

Several values for one entry are separate records, joined by “and”; a condition that tells them apart may be missing. Equal values may be shown once.

As usually defined, the IC50 is the concentration at which inhibition is half-maximal. The low end stands for greater potency in that assay, the high end for weaker potency in that assay. Turning to `O=C1/C(=C\c2c[nH]c3ccccc23)c2ccccc2N1Cc1ccccc1` [Y1], the 50% inhibitory concentration (IC50) was 9.72 µM with A549 cells (setting [2]), 2.64 µM in the experiment with HCT-116 cells (setting [2]), 4.11 µM in the experiment with A498 cells (setting [3]) and 6.34 µM with MCF-7 cells (setting [2]). Also, in the experiment on MCF-10F/Beas2b cells, the “Selectivite Index, MCF-10F/Beas2b (Table 2)” value is given as over 23.25. Besides, the “Annexin V/PI flow cytometry apoptosis values” in experiment [1] was at least 40%.
Take `Cc1ccc2c(c1)/C(=C/c1c[nH]c3ccccc13)C(=O)N2Cc1ccccc1` [Y3]: the 50% inhibitory concentration (IC50) turned out to be 3.97 µM with A549 cells (Homo sapiens, A549, no * mark (incubation time not given)); 2.05 µM in the experiment with HCT-116 cells (Homo sapiens, HCT-116, no * mark (incubation time not given)); 0.87 µM in the experiment on A498 cells (Homo sapiens, A498, MTT, no * mark (incubation time not given)); 4.75 µM with MCF-7 cells (Homo sapiens, MCF7, no * mark (incubation time not given)). In the experiment on A498 cells, this molecule yielded a selectivity index of over 11. In addition, the “Selectivite Index (SI), MCF-10F/Beas2b (Table 1)” value with MCF-10F/Beas2b cells is over 11.49. In the experiment on MCF-10F/Beas2b cells, the “Selectivite Index, MCF-10F/Beas2b (Table 2)” value is over 76.92. Moreover, in experiment [1], the “Annexin V/PI flow cytometry apoptosis values” is listed as at least 40%.
`O=C1/C(=C\c2c[nH]c3ccccc23)c2cc(OC(F)(F)F)ccc2N1Cc1ccccc1` [Y4]: the IC50 with A549 cells (setting [2]) was over 10 µM; with HCT-116 cells (setting [2]), 0.57 µM; with A498 cells (setting [3]), 4.23 µM; in the experiment with MCF-7 cells (setting [2]), over 10 µM. Besides, the “Selectivite Index, MCF-10F/Beas2b (Table 2)” value in the experiment with MCF-10F/Beas2b cells is > 17.54 and > 18.87. The “Annexin V/PI flow cytometry apoptosis values” in experiment [1] is on record as at least 40%.
Regarding `Cc1ccc2c(c1)/C(=C/c1c[nH]c3ccccc13)C(=O)N2Cc1cccc(F)c1` [Y8], the IC50 worked out at 8.76 µM in the experiment with A549 cells (setting [2]), 1.21 µM in the experiment with HCT-116 cells (setting [2]), 0.93 µM in the experiment on A498 cells (setting [3]) and 5.79 µM with MCF-7 cells (setting [2]). The selectivity index in the experiment with A498 cells was over 11. The “Selectivite Index (SI), MCF-10F/Beas2b (Table 1)” value in the experiment with MCF-10F/Beas2b cells is over 10.75. Also, the “Selectivite Index, MCF-10F/Beas2b (Table 2)” value in the experiment on MCF-10F/Beas2b cells is given as over 18.52. Moreover, in experiment [1], the “Annexin V/PI flow cytometry apoptosis values” is at least 40%.
